Data: the kinase profiling compilation of Christmann-Franck et al. (2016)
Several values for one entry are separate records, joined by “and”; a condition that tells them apart may be missing. Identical values can stand only once.

Tests used:
Assay in all cases: radiometric filter-binding kinase assay, Kinase HotSpot
Conditions in all cases: compound 0.5 µM; ATP 10 µM
[1] = target: LYN (human) (UniProt P07948)
[2] = target: TEK (human) (UniProt Q02763)
[3] = target: PLK2 (human) (UniProt Q9NYY3)
[4] = target: PAK3 (human) (UniProt O75914)
[5] = target: CSF1R (human) (UniProt P07333)
[6] = target: IRAK1 (human) (UniProt P51617)
[7] = target: PAK7 (human) (UniProt Q9P286)
[8] = target: ACVRL1 (human) (UniProt P37023)
[9] = target: CSNK2A2 (human) (UniProt P19784)
[10] = target: CSNK1G2 (human) (UniProt P78368)
[11] = target: MARK2 (human) (UniProt Q7KZI7)
[12] = target: CAMK4 (human) (UniProt Q16566)
[13] = target: PRKG2 (human) (UniProt Q13237)
[14] = target: NUAK1 (human) (UniProt O60285)
[15] = target: AKT3 (human) (UniProt Q9Y243)
[16] = target: DYRK3 (human) (UniProt O43781)
[17] = target: PRKX (human) (UniProt P51817)
[18] = target: MAPK1 (human) (UniProt P28482)
[19] = target: ULK1 (human) (UniProt O75385)
[20] = target: EPHB2 (human) (UniProt P29323)
[21] = target: ROS1 (human) (UniProt P08922)
[22] = target: MUSK (human) (UniProt O15146)
[23] = target: CDK1 CCNB1 (human) (UniProt P06493+P14635)
[24] = target: RPS6KA2 KD1 KD2 (human) (UniProt Q15349)
[25] = target: TAOK1 (human) (UniProt Q7L7X3)
[26] = target: MAP3K5 (human) (UniProt Q99683)
[27] = target: TGFBR1 (human) (UniProt P36897)
[28] = target: TYRO3 (human) (UniProt Q06418)
[29] = target: PBK (human) (UniProt Q96KB5)
[30] = system: MAP2K6 (human), P52564 [S207E/T211E]
[31] = target: CDK2 CCNA2 (human) (UniProt P24941+P20248)
[32] = target: EPHA8 (human) (UniProt P29322)
[33] = target: FER (human) (UniProt P16591)
[34] = target: EPHA7 (human) (UniProt Q15375)
[35] = target: CHEK2 (human) (UniProt O96017)
[36] = target: SRMS (human) (UniProt Q9H3Y6)
[37] = target: CDK4 CCND1 (human) (UniProt P24385+P11802)
[38] = target: CLK4 (human) (UniProt Q9HAZ1)
[39] = target: PHKG2 (human) (UniProt P15735)
[40] = target: STK39 (human) (UniProt Q9UEW8)
[41] = target: CDK3 CCNE1 (human) (UniProt Q00526+P24864)
[42] = target: STK3 (human) (UniProt Q13188)

CAMK4 (human), sequence (Q16566 whole entry, looked up): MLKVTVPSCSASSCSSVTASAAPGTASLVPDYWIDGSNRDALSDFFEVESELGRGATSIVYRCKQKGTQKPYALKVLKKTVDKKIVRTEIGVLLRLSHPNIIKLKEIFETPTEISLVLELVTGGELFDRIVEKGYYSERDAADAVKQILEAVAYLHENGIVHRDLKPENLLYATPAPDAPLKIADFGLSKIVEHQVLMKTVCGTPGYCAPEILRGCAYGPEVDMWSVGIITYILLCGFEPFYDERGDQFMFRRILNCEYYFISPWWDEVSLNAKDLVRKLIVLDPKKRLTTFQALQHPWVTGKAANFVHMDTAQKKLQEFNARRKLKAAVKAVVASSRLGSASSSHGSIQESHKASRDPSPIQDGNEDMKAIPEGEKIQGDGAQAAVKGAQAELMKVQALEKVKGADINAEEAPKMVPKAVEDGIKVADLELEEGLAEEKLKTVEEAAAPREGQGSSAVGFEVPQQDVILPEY
TGFBR1 (human), sequence (P36897 whole entry, looked up): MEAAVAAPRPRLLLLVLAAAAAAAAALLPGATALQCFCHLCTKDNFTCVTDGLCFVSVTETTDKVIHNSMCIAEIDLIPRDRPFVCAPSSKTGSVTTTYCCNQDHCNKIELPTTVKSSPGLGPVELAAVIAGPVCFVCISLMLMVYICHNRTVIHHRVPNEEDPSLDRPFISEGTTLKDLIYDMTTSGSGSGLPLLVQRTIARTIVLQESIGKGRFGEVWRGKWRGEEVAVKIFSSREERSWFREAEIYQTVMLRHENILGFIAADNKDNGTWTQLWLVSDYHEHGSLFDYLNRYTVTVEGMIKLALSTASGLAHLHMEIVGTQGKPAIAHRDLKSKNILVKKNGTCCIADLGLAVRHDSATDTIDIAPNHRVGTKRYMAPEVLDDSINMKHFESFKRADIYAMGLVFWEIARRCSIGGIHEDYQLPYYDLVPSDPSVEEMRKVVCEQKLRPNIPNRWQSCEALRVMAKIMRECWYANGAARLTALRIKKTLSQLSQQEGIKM
PRKG2 (human), sequence (Q13237 whole entry, looked up): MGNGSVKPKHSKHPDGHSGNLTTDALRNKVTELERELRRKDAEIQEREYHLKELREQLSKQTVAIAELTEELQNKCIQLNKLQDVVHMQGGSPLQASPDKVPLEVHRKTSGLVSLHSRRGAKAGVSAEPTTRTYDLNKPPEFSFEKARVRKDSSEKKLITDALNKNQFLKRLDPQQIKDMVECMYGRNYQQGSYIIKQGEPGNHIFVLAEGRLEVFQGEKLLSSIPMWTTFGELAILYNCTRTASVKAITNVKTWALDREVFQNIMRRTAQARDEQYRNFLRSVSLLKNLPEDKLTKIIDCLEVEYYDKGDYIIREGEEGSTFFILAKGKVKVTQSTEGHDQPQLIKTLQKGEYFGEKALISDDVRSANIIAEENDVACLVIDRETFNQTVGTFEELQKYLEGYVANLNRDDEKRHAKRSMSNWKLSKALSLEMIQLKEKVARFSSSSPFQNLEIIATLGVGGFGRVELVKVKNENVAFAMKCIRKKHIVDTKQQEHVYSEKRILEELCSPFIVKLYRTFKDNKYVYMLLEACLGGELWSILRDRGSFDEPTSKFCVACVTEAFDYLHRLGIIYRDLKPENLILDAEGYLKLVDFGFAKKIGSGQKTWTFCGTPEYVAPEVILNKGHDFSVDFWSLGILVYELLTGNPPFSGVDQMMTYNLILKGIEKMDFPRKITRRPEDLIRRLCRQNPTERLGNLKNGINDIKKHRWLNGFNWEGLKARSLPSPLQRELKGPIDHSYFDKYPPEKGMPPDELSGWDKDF
MAP2K6 (human), P52564 [S207E/T211E], sequence (P52564 whole entry S207E/T211E, looked up): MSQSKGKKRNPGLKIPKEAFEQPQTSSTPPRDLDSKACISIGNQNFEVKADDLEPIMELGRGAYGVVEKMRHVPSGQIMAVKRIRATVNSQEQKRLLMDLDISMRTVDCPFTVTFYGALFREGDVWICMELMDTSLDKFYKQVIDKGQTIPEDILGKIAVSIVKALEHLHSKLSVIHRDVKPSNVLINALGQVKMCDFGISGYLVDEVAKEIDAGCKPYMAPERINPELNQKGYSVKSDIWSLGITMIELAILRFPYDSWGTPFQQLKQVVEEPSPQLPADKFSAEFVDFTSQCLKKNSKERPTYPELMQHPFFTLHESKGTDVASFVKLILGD
CDK1 CCNB1 (human), sequence (P06493 whole entry, looked up): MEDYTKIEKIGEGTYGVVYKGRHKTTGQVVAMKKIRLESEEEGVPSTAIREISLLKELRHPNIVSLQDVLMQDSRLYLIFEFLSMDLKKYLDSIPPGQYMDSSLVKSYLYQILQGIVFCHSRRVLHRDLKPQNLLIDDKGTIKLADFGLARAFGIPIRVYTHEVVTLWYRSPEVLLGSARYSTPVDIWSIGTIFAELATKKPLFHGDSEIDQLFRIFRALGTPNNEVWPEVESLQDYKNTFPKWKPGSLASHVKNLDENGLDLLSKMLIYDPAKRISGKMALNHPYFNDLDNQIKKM
CDK1 CCNB1 (human), sequence (P14635 whole entry, looked up): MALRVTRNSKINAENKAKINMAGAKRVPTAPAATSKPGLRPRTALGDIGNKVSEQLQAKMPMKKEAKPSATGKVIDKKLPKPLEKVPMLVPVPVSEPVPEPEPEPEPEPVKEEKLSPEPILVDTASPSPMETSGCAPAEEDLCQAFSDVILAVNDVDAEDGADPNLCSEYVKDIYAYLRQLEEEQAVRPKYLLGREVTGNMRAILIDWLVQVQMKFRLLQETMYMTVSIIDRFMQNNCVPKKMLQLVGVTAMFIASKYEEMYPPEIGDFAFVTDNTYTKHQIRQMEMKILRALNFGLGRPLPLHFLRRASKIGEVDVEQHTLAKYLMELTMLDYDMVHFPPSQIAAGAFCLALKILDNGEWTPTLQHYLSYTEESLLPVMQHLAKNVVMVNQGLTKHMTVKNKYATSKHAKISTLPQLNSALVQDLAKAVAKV
MAP3K5 (human), sequence (Q99683 whole entry, looked up): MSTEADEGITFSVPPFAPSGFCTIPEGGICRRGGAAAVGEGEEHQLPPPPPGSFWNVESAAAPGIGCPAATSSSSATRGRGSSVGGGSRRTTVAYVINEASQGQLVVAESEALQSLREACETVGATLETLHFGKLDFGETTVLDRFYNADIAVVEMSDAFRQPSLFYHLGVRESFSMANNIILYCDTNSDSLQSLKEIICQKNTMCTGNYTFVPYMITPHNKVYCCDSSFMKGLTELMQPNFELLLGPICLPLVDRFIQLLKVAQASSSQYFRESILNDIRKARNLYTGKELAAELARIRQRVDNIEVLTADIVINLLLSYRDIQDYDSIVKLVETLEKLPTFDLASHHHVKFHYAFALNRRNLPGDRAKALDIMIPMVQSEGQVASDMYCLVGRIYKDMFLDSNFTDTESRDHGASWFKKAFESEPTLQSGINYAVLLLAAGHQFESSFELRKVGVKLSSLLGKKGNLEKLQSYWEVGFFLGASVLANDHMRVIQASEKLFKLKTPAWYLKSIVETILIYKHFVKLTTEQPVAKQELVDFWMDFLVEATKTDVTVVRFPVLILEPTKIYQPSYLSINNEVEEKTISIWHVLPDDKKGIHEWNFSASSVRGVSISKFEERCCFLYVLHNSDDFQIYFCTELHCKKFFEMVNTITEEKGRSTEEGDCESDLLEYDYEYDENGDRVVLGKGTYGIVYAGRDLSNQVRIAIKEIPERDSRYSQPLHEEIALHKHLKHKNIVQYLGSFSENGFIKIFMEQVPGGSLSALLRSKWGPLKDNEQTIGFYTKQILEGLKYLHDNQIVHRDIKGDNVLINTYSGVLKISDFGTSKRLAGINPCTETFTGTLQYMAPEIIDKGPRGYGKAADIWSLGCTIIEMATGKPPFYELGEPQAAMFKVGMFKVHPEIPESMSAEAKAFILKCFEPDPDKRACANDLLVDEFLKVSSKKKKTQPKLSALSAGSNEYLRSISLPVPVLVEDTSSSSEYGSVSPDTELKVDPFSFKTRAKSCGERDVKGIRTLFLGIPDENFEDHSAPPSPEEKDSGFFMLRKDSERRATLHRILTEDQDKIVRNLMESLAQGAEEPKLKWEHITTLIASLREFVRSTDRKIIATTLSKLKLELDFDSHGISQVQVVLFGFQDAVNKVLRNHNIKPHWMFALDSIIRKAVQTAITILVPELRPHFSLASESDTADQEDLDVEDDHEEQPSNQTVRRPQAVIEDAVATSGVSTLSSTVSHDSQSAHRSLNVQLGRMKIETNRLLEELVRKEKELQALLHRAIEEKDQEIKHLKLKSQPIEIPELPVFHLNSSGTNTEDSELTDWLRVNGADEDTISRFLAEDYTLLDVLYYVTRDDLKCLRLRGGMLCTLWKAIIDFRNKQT
MUSK (human), sequence (O15146 whole entry, looked up): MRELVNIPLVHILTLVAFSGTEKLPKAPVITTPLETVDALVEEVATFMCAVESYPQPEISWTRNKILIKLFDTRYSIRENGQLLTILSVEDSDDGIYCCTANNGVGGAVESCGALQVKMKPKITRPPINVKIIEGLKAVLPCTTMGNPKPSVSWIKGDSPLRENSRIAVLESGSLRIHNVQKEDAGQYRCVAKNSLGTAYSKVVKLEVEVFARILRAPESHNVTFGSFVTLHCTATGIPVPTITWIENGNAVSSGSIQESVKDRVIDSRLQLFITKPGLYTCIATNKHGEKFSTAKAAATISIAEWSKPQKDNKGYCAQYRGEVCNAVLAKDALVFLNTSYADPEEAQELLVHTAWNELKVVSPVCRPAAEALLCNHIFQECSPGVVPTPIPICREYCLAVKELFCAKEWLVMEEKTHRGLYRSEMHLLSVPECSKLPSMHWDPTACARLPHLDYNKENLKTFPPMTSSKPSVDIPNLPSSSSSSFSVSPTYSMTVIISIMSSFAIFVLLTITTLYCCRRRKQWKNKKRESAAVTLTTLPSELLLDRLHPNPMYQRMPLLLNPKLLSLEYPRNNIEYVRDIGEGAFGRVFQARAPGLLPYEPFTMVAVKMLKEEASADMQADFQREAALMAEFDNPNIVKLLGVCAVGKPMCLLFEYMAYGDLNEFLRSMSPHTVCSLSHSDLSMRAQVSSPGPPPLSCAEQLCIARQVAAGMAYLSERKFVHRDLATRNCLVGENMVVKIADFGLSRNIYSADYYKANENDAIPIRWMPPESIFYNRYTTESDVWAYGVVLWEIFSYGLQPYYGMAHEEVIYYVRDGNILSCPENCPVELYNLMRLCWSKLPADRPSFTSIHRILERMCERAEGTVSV

SMILES: N#C/C(=C\c1ccc(O)c(O)c1)C(=O)NCc1ccccc1
- residual activity [1]: 105% and 99.8%
- residual activity [2]: 95.1%
- residual activity [3]: 105%
- residual activity [4]: 101%
- residual activity [5]: 100%
- residual activity [6]: 154%
- residual activity [7]: 96.1%
- residual activity [8]: 106%
- residual activity [9]: 81.9%
- residual activity [10]: 106%
- residual activity [11]: 88.2%
- residual activity [12]: 97%
- residual activity [13]: 98.6%
- residual activity [14]: 90%
- residual activity [15]: 90.8%
- residual activity [16]: 99.6%
- residual activity [17]: 99.6%
- residual activity [18]: 92.2%
- residual activity [19]: 92.9%
- residual activity [20]: 99.7%
- residual activity [21]: 101%
- residual activity [22]: 97.9%
- residual activity [23]: 96.9%
- residual activity [24]: 94.2%
- residual activity [25]: 95.1%
- residual activity [26]: 104%
- residual activity [27]: 97.6%
- residual activity [28]: 109%
- residual activity [29]: 84.2%
- residual activity [30]: 127%
- residual activity [31]: 99.2%
- residual activity [32]: 92%
- residual activity [33]: 86.2%
- residual activity [34]: 89.7%
- residual activity [35]: 97.5%
- residual activity [36]: 104%
- residual activity [37]: 109%
- residual activity [38]: 94%
- residual activity [39]: 96%
- residual activity [40]: 99.8%

SMILES: CN(C)S(=O)(=O)c1ccc2c(c1)/C(=C/c1cc3c([nH]1)CCCC3)C(=O)N2
- residual activity [2]: 95.4%
- residual activity [3]: 94.4%
- residual activity [4]: 97.6%
- residual activity [5]: 37.2%
- residual activity [6]: 5.59%
- residual activity [8]: 102%
- residual activity [9]: 92.1%
- residual activity [10]: 93.8%
- residual activity [11]: 61.7%
- residual activity [12]: 96.6%
- residual activity [13]: 95.9%
- residual activity [14]: 10.9%
- residual activity [15]: 96.7%
- residual activity [41]: 96.9%
- residual activity [16]: 99.1%
- residual activity [17]: 98.1%
- residual activity [18]: 101%
- residual activity [19]: 6.13%
- residual activity [20]: 98.4%
- residual activity [21]: 83.3%
- residual activity [22]: 82.8%
- residual activity [23]: 75.4%
- residual activity [24]: 52.8%
- residual activity [25]: 85.8%
- residual activity [26]: 106%
- residual activity [27]: 95.9%
- residual activity [28]: 57.2%
- residual activity [29]: 99.7%
- residual activity [30]: 94.6%
- residual activity [31]: 90.6%
- residual activity [32]: 100%
- residual activity [33]: 51.8%
- residual activity [34]: 91.1%
- residual activity [35]: 46.1%
- residual activity [42]: 24.3%
- residual activity [36]: 104%
- residual activity [37]: 107%
- residual activity [38]: 50.7%
- residual activity [39]: 78.8%
- residual activity [40]: 99.5%

SMILES: O=C(c1cc2cc(O)ccc2[nH]1)c1cc2cc(O)ccc2[nH]1
- residual activity [2]: 104%
- residual activity [3]: 102%
- residual activity [4]: 99.2%
- residual activity [5]: 97.7%
- residual activity [6]: 98.1%
- residual activity [7]: 85.3%
- residual activity [8]: 98.4%
- residual activity [9]: 78.8%
- residual activity [10]: 93.8%
- residual activity [11]: 59.9%
- residual activity [12]: 96.5%
- residual activity [13]: 80.6%
- residual activity [14]: 69.2%
- residual activity [15]: 102%
- residual activity [41]: 85.2%
- residual activity [16]: 115%
- residual activity [17]: 94.5%
- residual activity [18]: 113%
- residual activity [19]: 60.1%
- residual activity [20]: 76.7%
- residual activity [21]: 105%
- residual activity [22]: 55.1%
- residual activity [23]: 60.5%
- residual activity [24]: 22.2%
- residual activity [25]: 85.6%
- residual activity [26]: 89.6%
- residual activity [27]: 93.4%
- residual activity [28]: 76.4%
- residual activity [29]: 100%
- residual activity [30]: 93.6%
- residual activity [31]: 61.5%
- residual activity [32]: 92.9%
- residual activity [33]: 86.6%
- residual activity [34]: 101%
- residual activity [35]: 80.1%
- residual activity [42]: 41.4%
- residual activity [36]: 93.7%
- residual activity [37]: 91.5%
- residual activity [38]: 79.1%
- residual activity [39]: 105%
- residual activity [40]: 97.6%
